PubChem BioAssay AID493191 (Broad Institute, 2011)

test system: MALME3 melanoma viability, CellTiter-Glo luminescence, 24 h; experiment: MALME3 melanoma cell viability loss, dose response, orthogonal assay for MITF inhibitor project, CellTiter-Glo, cherry-picked (AID 493191)

SMILES | AC50 [µM]
COc1ccc(-c2cc3c(nn2)-c2ccccc2C3=O)cc1 | 14.5
Cn1c(SC2=CS(=O)(=O)c3ccccc32)nc2ccccc21 | 19.7
COc1ccc2[nH]cc(C(=O)CCl)c2c1 | 15.1
c1ccc(CSc2nnc(-c3ccco3)n2Cc2ccco2)cc1 | 26.4
CC1CCC(C(C)C)C(OC(=O)C[n+]2cc(-c3ccc(Cl)cc3)n3c2CCCCC3)C1 (centres undefined) | 18
O=C1C(Cl)=C(Nc2ccccc2)C(=O)c2ccccc21 | 5.66
O=C(Nc1ccccc1N1CCOCC1)c1ccc([N+](=O)[O-])s1 | 30.9
Cc1cc(C)c2sc(N(CCCN(C)C)C(=O)COc3ccc(Cl)cc3)nc2c1 | 32.7
Cc1ccc([N+](=O)[O-])cc1N1C(=O)CS/C1=N\NC(=O)c1cccnc1 | 24.2
N=c1n(CC(=O)c2ccc(Br)s2)c2ccccc2n1Cc1ccccc1 | 24.7
Cc1ccc(NC(=O)c2cc(N3C(=O)C=CC3=O)ccc2N2CCOCC2)cc1Cl | 23.5
CCN1c2ccccc2NC2N=C(OC)C(c3ccccc3)C21 (centres undefined) | 7.13
c1ccc2cc3c(NCCN4CCOCC4)ccnc3cc2c1 | 4.49
COc1ccc(C)c2sc(N(CCN(C)C)C(=O)/C=C/c3cccs3)nc12 | 25.1
CN(C)CCNC(=O)/C(=C/c1ccc(-c2ccc(Cl)cc2Cl)o1)NC(=O)c1ccccc1 | 18
O=C(Cn1ncc(Cl)c(Cl)c1=O)N1CCc2ccccc21 | 5.98
COC(=O)c1ccc2c(c1O)C(=O)c1ccccc1C2=O | 2.82
Cc1ccc(NC(=O)Cn2ncc(Cl)c(Cl)c2=O)cc1S(=O)(=O)N1CCCCC1 | 15.8
CS(=O)(=O)c1ncc(Cl)c(C(=O)Nc2ccc3ccccc3c2)n1 | 15.2
CCNC1=C(Cl)C(=O)c2ccccc2C1=O | 15.3
COCCN(CC(=O)NC1CCCCC1)C(=O)/C=C/C(=O)c1ccc(OC)cc1O | 6.68
O=C(Cn1ncc(Cl)c(Cl)c1=O)c1ccc(Cl)cc1 | 26.5

SMILES | AC50 [µM]
CCCCC[n+]1ccn(C2=C([O-])c3ccccc3C(=O)/C2=N\S(=O)(=O)c2ccccc2)c1 | 14.2
CC(C)C(=O)N1CCN(c2ccc(NC(=O)c3ccc([N+](=O)[O-])o3)cc2Cl)CC1 | 19.2
CC(C)(C)NC(=O)CCN(/N=C/c1ccc([N+](=O)[O-])o1)C1=NS(=O)(=O)c2ccccc21 | 31.9
CC1CCC(C(C)C)C(OC(=O)Cn2c(-c3ccc(F)cc3)[n+](C)c3ccccc32)C1 (centres undefined) | 12.5
COc1cccc(C(=O)Oc2c(CN3CCOCC3)cc(Cl)c3cccnc23)c1 | 30.7
CC1(C(=O)N/N=C/c2ccc([N+](=O)[O-])o2)CC1(Br)Br (centres undefined) | 34
COc1ccc(-c2nn(-c3ccccc3)cc2/C=N/N=C(N)N)cc1OC | 21.9
O=C(Cn1ncc(Cl)c(Cl)c1=O)N1CCOCC1 | 20.6
O=C(C#Cc1ccccc1)c1cccc([N+](=O)[O-])c1 | 10.8
O=C1NC2c3c(I)sc(I)c3C(=O)C2O1 (centres undefined) | 16.6
COc1ccccc1NS(=O)(=O)c1cccc(C(=O)N/N=C/c2ccc([N+](=O)[O-])o2)c1 | 14.6
O=C1/C(=N\S(=O)(=O)c2cccs2)C([n+]2ccccc2)=C([O-])c2ccccc21 | 3.81
O=C(CNc1cccc2ccccc12)N/N=C/c1ccc([N+](=O)[O-])o1 | 16.3
O=C1c2ccccc2C(=O)c2c1ncn2-c1ccccc1 | 19.2
COc1cc2c(cc1OC)C(c1ccccc1)N(C(=O)CCl)CC2 (centres undefined) | 18
CC(C)C(=O)N1CCN(c2ccc(NC(=O)c3ccc([N+](=O)[O-])o3)cc2)CC1 | 12.8
Cc1cc(-n2c(SCC(=O)NCCC3=CCCCC3)nc3n[nH]c(C)c3c2=N)ccc1Cl | 28.6
COc1cc(NC(=O)c2ccc([N+](=O)[O-])o2)ccc1NC(=O)c1cccs1 | 13.1
CC(C)(C)C(=O)Cn1ncc(Br)c(Br)c1=O | 17.7
OCCNc1c2ccccc2nc2c(F)c(F)c(F)c(F)c12 | 15.1
CN1CCN(c2ccc(NC(=O)c3ccc([N+](=O)[O-])o3)cc2Cl)CC1 | 21.3
CC1=C(CC(=O)c2ccccc2)C(=O)c2ccccc2C1=O | 12.7

SMILES | AC50 [µM]
Cc1ccc(C)c(NC(=O)/C(C#N)=C/c2cn(CC(=O)NCc3ccco3)c3ccccc23)c1 | 18.6
CCC(=O)OCCNc1cc(Sc2nccn2C)c2nonc2c1[N+](=O)[O-] | 27.4
Cc1scc(C(=O)N/N=C/c2ccc([N+](=O)[O-])o2)c1C | 15.7
O=C1C=C(N(CCO)Cc2ccccc2)c2ccccc2C1=O | 16
CCCCN(C)CC(O)Cn1cc(/C=C/C(=O)c2cccs2)c2ccccc21 (centres undefined) | 18.6
CCS(=O)(=O)c1ccc(N=Nc2ccc(O)c3ncccc23)c(OC)c1 | 5.85
Nc1nc2ccccc2n1/N=C/c1ccc([N+](=O)[O-])s1 | 16.3
Oc1c(CN2CCCCC2)cc(COCc2ccccc2)c2cccnc12 | 10.4
O=C1C(Nc2ccccc2)=C(N2CCCCC2)C(=O)c2ccccc21 | 18.2
COc1cc(NC(=O)COc2ccccc2[N+](=O)[O-])ccc1NC(=O)c1cccs1 | 26.7
O=C1C=CC(=C(c2ccc(O)cc2)c2ccc(O)cc2)C=C1 | 29.4
COc1ccc(S(=O)(=O)N2CCCCC2)cc1NC(=O)c1ccc([N+](=O)[O-])o1 | 14.3
O=C(N/N=C/c1ccc(O)c2ncccc12)c1cccc(Br)c1 | 14.7
O=C(Cc1ccc2c(c1)OCO2)NN=Cc1ccc([N+](=O)[O-])o1 | 19.1
CC1CCC(C(C)C)C(OC(=O)Cn2c(-c3ccc(Cl)cc3)[n+](C)c3ccccc32)C1 (centres undefined) | 11.7
CC1=CC2/C=C(\C)CCC(O)C(O)/C=C/C(=O)C23C(=O)NC(CC(C)C)C3C1C (centres undefined) | 12.6
Cc1ccc(C)c(C(=O)Cn2ncc(Cl)c(Cl)c2=O)c1 | 16
CCOC(=O)c1ccc(NC2=CC(=O)C(=O)c3ccccc32)cc1 | 5.16
Cc1ccccc1OCC(=O)N/N=C/c1ccc([N+](=O)[O-])o1 | 26.3
CCCNC(=O)COC(=O)c1ccccc1C(=O)c1ccc(Cl)c([N+](=O)[O-])c1 | 16.3
CC[n+]1c(-c2ccccc2)c2cc(N)ccc2c2ccc(N)cc21 | 23.3
O=c1c(Cl)c(Cl)cnn1Cc1ccc(F)cc1 | 31.6

SMILES | AC50 [µM]
O=c1c2ccccc2nc(/C=C/c2ccc([N+](=O)[O-])o2)n1-c1ccc(O)cc1 | 14.5
O=C(Cn1ncc(Cl)c(Cl)c1=O)NCC1CCCCC1 | 9.94
CC1=NNC(=O)/C1=C\c1cn(-c2ccccc2)nc1-c1ccc(F)cc1 | 25.9
CN1CCC(N(C)C(=O)/C=C/c2cn(-c3ccccc3)nc2-c2cccs2)CC1 | 29.7
C=C1C(=O)O[C@@H]2[C@H]1[C@@H](OC(=O)/C(C)=C/C)C/C(C)=C\C(=O)/C=C(\C)[C@@H]2O | 6.41
O=C(Nc1ccc(N2CCCC2)c(Cl)c1)c1ccc([N+](=O)[O-])o1 | 11.1
CC(=O)Nc1sc(C)c(C)c1C(=O)OCC(=O)N(CC(C)C)c1c(N)n(Cc2ccccc2)c(=O)[nH]c1=O | 6.17
CCN(CC)S(=O)(=O)c1ccc(NC(=O)c2cccnc2Cl)c(NC(=O)c2cccnc2Cl)c1 | 25.6
Cc1ccc(C(=O)N/N=C/c2ccc([N+](=O)[O-])s2)cc1 | 22.6
Cc1cc(C)c2c(N)c3cccc(C)c3nc2n1 | 27.9
Cc1ccc(NC2=C(Cl)C(=O)c3ccccc3C2=O)cc1 | 6.96
CC(=O)c1cccc(NC(=O)/C=C/c2ccc([N+](=O)[O-])s2)c1 | 16.8
CC(C)(C)c1ccc(Cn2c(=N)n(CC(O)c3ccco3)c3ccccc32)cc1 (centres undefined) | 18.3
CCN(Cc1ccccc1)c1ccc(/C=N/N=C(N)N)cc1 | 24.4
CCn1c(/C=C/Nc2ccccc2)[n+](CC)c2cc(Cl)c(Cl)cc21 | 29.6
Cc1cc(C)cc(OCC(=O)N/N=C/c2ccc([N+](=O)[O-])o2)c1 | 22.9
CC(=O)N1CCc2c(sc(NC(=O)c3ccc([N+](=O)[O-])o3)c2C#N)C1 | 9.37
CC1CN(C(=O)CCC(=O)NCCCN2CCC(Cc3ccccc3)CC2)c2cc(Cl)ccc2O1 (centres undefined) | 19.4
COc1ccc(C(CCNC(C)c2ccccc2)c2ccc(F)cc2)cc1 (centres undefined) | 16.7
CCc1ccc(NC2=CC(=O)C(=O)c3ccccc32)cc1 | 6.91
CCOCCCNC(=O)/C(C#N)=C/c1ccc([N+](=O)[O-])o1 | 12.6
CCN1CCN(c2ccc(S(=O)(=O)N3CCCCC3)cc2NC(=O)/C=C/c2ccc([N+](=O)[O-])cc2)CC1 | 23.9

SMILES | AC50 [µM]
COc1ccc(Oc2cc(NC(=O)c3nn(C)cc3[N+](=O)[O-])cc([N+](=O)[O-])c2)cc1 | 17.7
COc1ccc(C(=O)/C=C/C(=O)N(CC(=O)NC2CCCCC2)Cc2ccccc2)c(O)c1 | 6.88
O=C(CNC(=O)c1cccc(F)c1)N/N=C/c1ccc([N+](=O)[O-])s1 | 25.1
O=C(/C=C/c1ccc([N+](=O)[O-])s1)N1CCCCC1 | 30.7
C=Cc1ncc(OC)c2c1[nH]c1ccccc12 | 31.5
CC1CCCCC1NC(=O)/C(C#N)=C/C=C/c1ccccc1[N+](=O)[O-] (centres undefined) | 27.5
O=C(Nc1ccc(S(=O)(=O)NC2=NCCCCC2)cc1)c1ccc([N+](=O)[O-])s1 | 18.4
Cn1c(SCC(=O)N/N=C/c2ccc([N+](=O)[O-])s2)nnc1-c1ccccc1 | 14.7
CCN1CCN(C2=C(NS(=O)(=O)c3ccc(C)cc3)C(=O)c3ccccc3C2=O)CC1 | 11.9
COC1=C(Nc2ccccc2)C(=O)c2ccccc2C1=O | 22
O=C(Nc1ccc(F)cc1)c1nc(S(=O)(=O)Cc2ccccc2)ncc1Cl | 12
Cn1cc([N+](=O)[O-])c(C(=O)Nc2nc(-c3ccc(Cl)cc3)cs2)n1 | 26.5
O=C1Nc2ccc(Br)cc2/C1=C/C(=O)c1ccc2c(c1)OCO2 | 32
Cc1cc(C(C)(C)C)cc(C)c1Cn1c2[n+](c3ccc(C(F)(F)F)cc31)CCCCC2 | 24.6
CCN(CC)CCC(=O)N1C/C(=C/c2ccccc2)C(=O)/C(=C\c2ccccc2)C1 | 28.3
CCOC(=O)CSC1=NC(=O)/C(=C\c2ccc(Cl)cc2)S1 | 16.2
Oc1ccc(CNc2ccccc2F)c2cccnc12 | 28.2
CC1CCC(C(C)C)C(OC(=O)Cn2c(-c3ccccc3)[n+](C)c3ccccc32)C1 (centres undefined) | 9.63
CCN(CC)CCNC(=O)c1ccc(NC(=O)c2cn(-c3ccccc3)nc2-c2cccs2)cc1 | 17.8
CS(=O)(=O)c1ncc(Cl)c(C(=O)Nc2ccc(N3CCOCC3)cc2)n1 | 10.7
CN1CCN(C2=C(NS(=O)(=O)c3cccs3)C(=O)c3ccccc3C2=O)CC1 | 14.6
